Test results: patent publication US11464859B2 (priority 2005, dated 2022)
“Also recorded” adds a separate entry of the source.

Tests used:
[1] = test system: human tumour xenografts (renal cell carcinoma RXF 944LX, mammary cancer MAXF 401)
[2] = test system: prostate and/or urogenital cancer and bone metastasis; conditions: human, in vivo
[3] = test system: panel of 43 human tumour cell lines
[4] = human, in vivo
[5] = test system: telomeres of human cancer cells; assay type: cell-based; conditions: sodium salt
[6] = in vivo
[7] = in vivo; remark: listed apart in the source
telomerase = telomerase (Homo sapiens, UniProt O14746); assay type: biochemical; conditions: sodium salt
[8] = cited from earlier work
[9] = test system: acute promyelocytic leukaemia; conditions: cited from earlier work; for efficacy and side effects compared with intravenous arsenic trioxide: oral, pilot study, patients with acute promyelocytic leukaemia, preliminary results
[10] = test system: many different cancer cell lines; conditions: cited from earlier work

Chain of telomerase (O14746 whole entry): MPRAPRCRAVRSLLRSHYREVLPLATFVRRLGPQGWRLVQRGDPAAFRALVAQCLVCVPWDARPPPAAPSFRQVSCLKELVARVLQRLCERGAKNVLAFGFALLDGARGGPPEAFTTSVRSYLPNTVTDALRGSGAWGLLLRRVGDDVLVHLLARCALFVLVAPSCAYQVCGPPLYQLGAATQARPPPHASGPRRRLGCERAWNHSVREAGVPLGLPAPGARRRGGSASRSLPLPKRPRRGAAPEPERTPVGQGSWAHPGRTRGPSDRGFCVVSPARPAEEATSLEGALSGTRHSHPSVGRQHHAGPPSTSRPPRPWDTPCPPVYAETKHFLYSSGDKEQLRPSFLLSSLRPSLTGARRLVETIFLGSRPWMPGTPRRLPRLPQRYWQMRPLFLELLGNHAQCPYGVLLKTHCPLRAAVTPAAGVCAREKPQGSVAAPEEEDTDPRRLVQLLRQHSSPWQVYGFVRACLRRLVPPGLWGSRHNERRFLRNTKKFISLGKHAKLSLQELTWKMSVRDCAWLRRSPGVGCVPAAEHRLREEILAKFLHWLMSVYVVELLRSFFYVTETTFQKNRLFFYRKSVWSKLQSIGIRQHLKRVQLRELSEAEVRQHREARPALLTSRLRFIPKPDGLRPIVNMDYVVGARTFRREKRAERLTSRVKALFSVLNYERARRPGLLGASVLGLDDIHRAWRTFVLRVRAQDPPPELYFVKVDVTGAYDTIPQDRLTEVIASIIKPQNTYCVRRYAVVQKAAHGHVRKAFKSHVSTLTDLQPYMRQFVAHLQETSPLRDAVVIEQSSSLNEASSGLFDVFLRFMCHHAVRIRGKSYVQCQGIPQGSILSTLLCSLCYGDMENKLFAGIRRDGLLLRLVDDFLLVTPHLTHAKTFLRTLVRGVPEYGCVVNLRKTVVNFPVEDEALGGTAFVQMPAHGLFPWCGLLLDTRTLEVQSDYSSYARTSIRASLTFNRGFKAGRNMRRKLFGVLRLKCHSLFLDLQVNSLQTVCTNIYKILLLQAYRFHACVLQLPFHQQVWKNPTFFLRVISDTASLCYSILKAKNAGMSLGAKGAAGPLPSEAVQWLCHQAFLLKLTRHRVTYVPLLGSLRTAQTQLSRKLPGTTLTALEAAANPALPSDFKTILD

arsenous acid sodium salt
anti-tumour activity in a human tumour model in vivo [1]: showed anti-tumour activity
activity in subcutaneously transplanted human tumour xenografts ([1]; in vivo): borderline active in 2/7
efficacy by schedule ([1]; in vivo): better
PSA levels and tumour size, overall [2]: a reduction in their PSA levels and tumour size
change in PSA levels, judgement [2]: clinically significant change
clinical response, overall [2]: Most patients showed at least a partial response
decrease in tumour activity [2]: 99.15%
further reduction in tumour activity [2]: 67.56%
further tumour activity reduction [2]: 40.32%
quality of life [2]: strongly ameliorated
IC50 [3]: 600 nM
combination effect [3]: additive effects
potency among three arsenic compounds [3]: most potent
potency relative to arsenic trioxide [3]: at least 15 fold
change in ECG activity, audiometry or neurological examinations [4]: no change
disturbance of patients' well-being feeling [4]: did not cause any disturbance
glucose levels [4]: always appeared elevated
hemoglobin concentration at end [4]: 11.1
hemoglobin concentration at start [4]: 10.0
liver transaminases sGOT, sGPT and sGGT [4]: reversible increase
sGGT elevation [4]: worsened
sGGT elevation and thrombocytosis [4]: remained unchanged
sGPT [4]: reversible and slight increase
triglycerides and cholesterol level [4]: unchanged
occurrence of the adverse events known for arsenic trioxide ([4]; po): none of these adverse events have been observed
effect on telomeres [5]: capable of shortening the telomeres of human cancer cells; also recorded: capable of shortening telomeres of human cancer cells, inducing cellular senescence and chromosomal abnormalities
main target organs of toxicity [6]: bone marrow and lymphoid organs
absorption [7]: rapidly absorbed
persistence in plasma [7]: remained in the plasma for prolonged periods
bioavailability ([7]; po): approximately 100%
inhibition of telomerase activity (telomerase): doesn't inhibit telomerase activity; also recorded: does not directly inhibit the telomerase activity

arsenic trioxide
incidence of the listed adverse events (fatigue, fever, oedema, chest pain, nausea, ECG abnormalities etc.) ([8]; patients treated with arsenic trioxide): ≥ 10 % of patients
effect on QT interval ([8]; patients): prolong the QT and QT interval corrected for rate (QTc)
clinical response ([9]; daily intravenous administration alone, newly diagnosed and relapsed acute promyelocytic leukaemia): complete responses in a large majority of patients
efficacy and side effects compared with intravenous arsenic trioxide [9]: comparable
effect on growth and apoptosis [10]: inhibits growth and promotes apoptosis

S1[As]2S[As]3S[As]2S[As]13 [tetra-arsenic tetrasulphide]
efficacy and side effects compared with intravenous arsenic trioxide [9]: The same was noted
